Laboratory results published in paper PMC6397271 (Scientific Reports, 2019).
Values after ≈ are worked out from the molar mass of the structure shown. Like-named read-outs stand apart in the source and are kept apart here.

Assays:
[1] = system: intracellular MRSA 12673 strain in HEK293 cells; assay: Intracellular antimicrobial (infection) assay; assay type: cell-based, Staphylococcus aureus
Protocol: HEK293 (human embryonic kidney) cells were purchased form Cell Line Services (Germany). The cells were cultured in Dulbecco’s Modified Eagle’s (DMEM) medium with 4.5 g/l glucose (Sigma-Aldrich, Germany), supplemented with 10% fetal bovine serum (FBS, Sigma-Aldrich, Germany) and 1% PEN/STREP (Sigma-Aldrich, Germany). Cells were maintained in a 5% CO2 incubator at 37 °C. The original lines were checked for the presence of mycoplasma.
HEK293 cells were seeded at a density of 1.5 × 10^5 cells/well in 24-well plates in an antibiotic-free medium (DMEM + 10% FBS) and were allowed to adhere overnight. Next, the medium was removed and overnight culture of S. aureus strain (12673) suspended in DMEM + 1% FBS (invasive medium) at a ratio of bacteria/cells 25:1 was added. To enable bacterial invasion, the cells were incubated with bacterial suspensions (37 °C, 5% CO2) for 2 h.
After this period of time extracellular bacteria were eliminated by a 30 min incubation with 20 U/ml lysostaphin. […] The lysis of human cells was carried out with 0.2% Trition-X-100 (Sigma-Aldrich, Germany). The obtained cell lysates were serially diluted in PBS and plated on agar plates and CFU/ml was determined.
The results are presented as the percentage of S. aureus intracellular survival after treatment in comparison to that of non-treated cells (control). The assay was performed in triplicates.

[2] = system: Enterococcus faecalis 3937158; assay: microbe, parasite or virus in culture; assay type: cell-based
In short: (§1)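 Strains were cultured aerobically at 37 °C for 24 h, MRSA in cation-adjusted Mueller-Hinton broth and enterococci in BHI broth. Cultures were serially diluted and plated to set CFU/ml. MICs then came from broth microdilution, scored by resazurin reduction.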

[3] = system: Enterococcus faecium 3934825; assay: microbe, parasite or virus in culture; assay type: cell-based
In short: as §1

[4] = system: S.aureus MRSA hetero-VISA 6347; assay: microbe, parasite or virus in culture; assay type: cell-based, Staphylococcus aureus; details: Staphylococcus aureus
Protocol: (§2) To find out MICA(with B) and MICB(with A) a checkerboard assay was carried out in 96-well microtiter plates (each test was performed in triplicates). […] Each well in a 96-well plate was inoculated with 100 µL of bacterial inoculum of 1 × 10^5 CFU/mL. For this purpose only bacterial strains of MRSA (N315, 12673 and 6347) were used. Next, the plates were incubated at 37 °C for 24 h.
(§3) FIC index (FICI) is the sum of FICA and FICB. The interpretation of the calculated FICIs is in accordance to the following principle: FICI ≤ 0.5 synergy; FICI > 0.5 and ≤4 indifference (no interaction); FICI > 4, antagonism.

S.aureus MRSA 12673 = assay: microbe, parasite or virus in culture; assay type: cell-based, Staphylococcus aureus; details: Staphylococcus aureus, MRSA
Protocol: as §2, §3

S.aureus MRSA N315 = assay: microbe, parasite or virus in culture; assay type: cell-based, Staphylococcus aureus; details: Staphylococcus aureus, MRSA
Protocol: as §2, §3

S. aureus MRSA 12673 = assay: microbe, parasite or virus in culture; assay type: cell-based, Staphylococcus aureus
In short: as §1

[5] = microbroth dilution, 96-well, resazurin, 37 °C, 24 h, mean ± SD, at least three independent experiments in triplicates, listed as Van-HCl
[6] = same test as μM value, mean ± SD
[7] = 24 h, read-out: MIC Van(with TP10), MICA (with B)

CN[C@H](CC(C)C)C(=O)N[C@H]1C(=O)N[C@@H](CC(N)=O)C(=O)N[C@H]2C(=O)N[C@H]3C(=O)N[C@H](C(=O)N[C@H](C(=O)O)c4cc(O)cc(O)c4-c4cc3ccc4O)[C@H](O)c3ccc(c(Cl)c3)Oc3cc2cc(c3O[C@@H]2O[C@H](CO)[C@@H](O)[C@H](O)[C@H]2O[C@H]2C[C@](C)(N)[C@H](O)[C@H](C)O2)Oc2ccc(cc2Cl)[C@H]1O [Van, vancomycin, reference compound]
percentage of S. aureus intracellular survival ([1]; HEK293 infected 25:1 for 2 h, lysostaphin 20 U/ml 30 min, compound 25 µM for 24 h, CFU/ml of lysates vs non-treated cells, triplicates, Fig. 2): ~95%
intracellular MRSA killed (bacterial killing rate) ([1]; MRSA-infected HEK293 cells, 25 µM, 24 h): 5%
MIC ([2]; Enterococcus faecalis, 3937158, 24 h, microbroth dilution, 96-well, resazurin, 37 °C, 24 h, mean ± SD, at least three independent experiments in triplicates, read-out: MIC): 25 µM (≈ 36.2 µg/mL)
MIC ([2]; Enterococcus faecalis, 3937158, raw MIC, first block, test a, repetition 1, read-out: MIC1a): 25 µM (≈ 36.2 µg/mL)
MIC ([2]; Enterococcus faecalis, 3937158, raw MIC, first block, test a, repetition 2, read-out: MIC2a): 25 µM (≈ 36.2 µg/mL)
MIC ([2]; Enterococcus faecalis, 3937158, raw MIC, first block, test a, repetition 3, read-out: MIC3a): 12.5 µM (≈ 18.1 µg/mL)
MIC ([2]; Enterococcus faecalis, 3937158, raw MIC, first block, test b, repetition 1, read-out: MIC1b): 25 µM (≈ 36.2 µg/mL)
MIC ([2]; Enterococcus faecalis, 3937158, raw MIC, first block, test b, repetition 2, read-out: MIC2b): 25 µM (≈ 36.2 µg/mL)
MIC ([2]; Enterococcus faecalis, 3937158, raw MIC, first block, test b, repetition 3, read-out: MIC3b): 12.5 µM (≈ 18.1 µg/mL)
MIC ([2]; Enterococcus faecalis, 3937158, raw MIC, test a, repetition 1, read-out: MIC1a): 37.1 µM (≈ 53.8 µg/mL)
MIC ([2]; Enterococcus faecalis, 3937158, raw MIC, test a, repetition 2, read-out: MIC2a): 37.1 µM (≈ 53.8 µg/mL)
MIC ([2]; Enterococcus faecalis, 3937158, raw MIC, test a, repetition 3, read-out: MIC3a): 18.6 µM (≈ 26.9 µg/mL)
MIC ([2]; Enterococcus faecalis, 3937158, raw MIC, test b, repetition 1, read-out: MIC1b): 37.1 µM (≈ 53.8 µg/mL)
MIC ([2]; Enterococcus faecalis, 3937158, raw MIC, test b, repetition 2, read-out: MIC2b): 37.1 µM (≈ 53.8 µg/mL)
MIC ([2]; Enterococcus faecalis, 3937158, raw MIC, test b, repetition 3, read-out: MIC3b): 18.6 µM (≈ 26.9 µg/mL)
MIC [2, 5]: 25.0 ± 6.5 µM (≈ 36.2 µg/mL)
MIC in (μg/ml) [2, 6]: 37.1 ± 9.6 µg/mL (≈ 25.6 µM)
MIC ([3]; Enterococcus faecium, 3934825, 24 h, microbroth dilution, 96-well, resazurin, 37 °C, 24 h, mean ± SD, at least three independent experiments in triplicates, read-out: MIC): 25 µM (≈ 36.2 µg/mL)
MIC ([3]; Enterococcus faecium, 3934825, raw MIC, first block, test a, repetition 1, read-out: MIC1a): 25 µM (≈ 36.2 µg/mL)
MIC ([3]; Enterococcus faecium, 3934825, raw MIC, first block, test a, repetition 2, read-out: MIC2a): 25 µM (≈ 36.2 µg/mL)
MIC ([3]; Enterococcus faecium, 3934825, raw MIC, first block, test a, repetition 3, read-out: MIC3a): 12.5 µM (≈ 18.1 µg/mL)
MIC ([3]; Enterococcus faecium, 3934825, raw MIC, first block, test b, repetition 1, read-out: MIC1b): 12.5 µM (≈ 18.1 µg/mL)
MIC ([3]; Enterococcus faecium, 3934825, raw MIC, first block, test b, repetition 2, read-out: MIC2b): 25 µM (≈ 36.2 µg/mL)
MIC ([3]; Enterococcus faecium, 3934825, raw MIC, first block, test b, repetition 3, read-out: MIC3b): 25 µM (≈ 36.2 µg/mL)
MIC ([3]; Enterococcus faecium, 3934825, raw MIC, test a, repetition 1, read-out: MIC1a): 37.1 µM (≈ 53.8 µg/mL)
MIC ([3]; Enterococcus faecium, 3934825, raw MIC, test a, repetition 2, read-out: MIC2a): 37.1 µM (≈ 53.8 µg/mL)
MIC ([3]; Enterococcus faecium, 3934825, raw MIC, test a, repetition 3, read-out: MIC3a): 37.1 µM (≈ 53.8 µg/mL)
MIC ([3]; Enterococcus faecium, 3934825, raw MIC, test b, repetition 1, read-out: MIC1b): 18.6 µM (≈ 26.9 µg/mL)
MIC ([3]; Enterococcus faecium, 3934825, raw MIC, test b, repetition 2, read-out: MIC2b): 37.1 µM (≈ 53.8 µg/mL)
MIC ([3]; Enterococcus faecium, 3934825, raw MIC, test b, repetition 3, read-out: MIC3b): 37.1 µM (≈ 53.8 µg/mL)
MIC [3, 5]: 25.0 ± 6.5 µM (≈ 36.2 µg/mL)
MIC in (μg/ml) [3, 6]: 37.1 ± 7.6 µg/mL (≈ 25.6 µM)
MIC [4, 7]: 1.6 µM
MIC ([4]; read-out: MIC Van (A), MICA): 4.1 µM
MIC (S.aureus MRSA 12673; [7]): 1.6 µM
MIC (S.aureus MRSA 12673; read-out: MIC Van (A), MICA): 4.1 µM
MIC (S.aureus MRSA N315; [7]): 1.6 µM
MIC (S.aureus MRSA N315; read-out: MIC Van (A), MICA): 2 µM
MIC (S. aureus MRSA 12673; Staphylococcus aureus, MRSA, 24 h, microbroth dilution, 96-well, resazurin, 37 °C, 24 h, mean ± SD, at least three independent experiments in triplicates, read-out: MIC): 4.1 µM (≈ 5.94 µg/mL)
MIC (S. aureus MRSA 12673; Staphylococcus aureus, MRSA, raw MIC, first block, test a, repetition 1, read-out: MIC1a): 4.07 µM (≈ 5.9 µg/mL)
MIC (S. aureus MRSA 12673; Staphylococcus aureus, MRSA, raw MIC, first block, test a, repetition 2, read-out: MIC2a): 2.03 µM (≈ 2.94 µg/mL)
MIC (S. aureus MRSA 12673; Staphylococcus aureus, MRSA, raw MIC, first block, test a, repetition 3, read-out: MIC3a): 4.07 µM (≈ 5.9 µg/mL)
MIC (S. aureus MRSA 12673; Staphylococcus aureus, MRSA, raw MIC, first block, test b, repetition 1, read-out: MIC1b): 4.07 µM (≈ 5.9 µg/mL)
MIC (S. aureus MRSA 12673; Staphylococcus aureus, MRSA, raw MIC, first block, test b, repetition 2, read-out: MIC2b): 2.03 µM (≈ 2.94 µg/mL)
MIC (S. aureus MRSA 12673; Staphylococcus aureus, MRSA, raw MIC, first block, test b, repetition 3, read-out: MIC3b): 4.07 µM (≈ 5.9 µg/mL)
MIC (S. aureus MRSA 12673; Staphylococcus aureus, MRSA, raw MIC, test a, repetition 1, read-out: MIC1a): 6.05 µM (≈ 8.77 µg/mL)
MIC (S. aureus MRSA 12673; Staphylococcus aureus, MRSA, raw MIC, test a, repetition 2, read-out: MIC2a): 3.03 µM (≈ 4.39 µg/mL)
MIC (S. aureus MRSA 12673; Staphylococcus aureus, MRSA, raw MIC, test a, repetition 3, read-out: MIC3a): 6.05 µM (≈ 8.77 µg/mL)
MIC (S. aureus MRSA 12673; Staphylococcus aureus, MRSA, raw MIC, test b, repetition 1, read-out: MIC1b): 6.05 µM (≈ 8.77 µg/mL)
MIC (S. aureus MRSA 12673; Staphylococcus aureus, MRSA, raw MIC, test b, repetition 2, read-out: MIC2b): 3.03 µM (≈ 4.39 µg/mL)
MIC (S. aureus MRSA 12673; Staphylococcus aureus, MRSA, raw MIC, test b, repetition 3, read-out: MIC3b): 6.05 µM (≈ 8.77 µg/mL)
MIC (S. aureus MRSA 12673; [5]): 4.1 ± 1.1 µM (≈ 5.94 µg/mL)
MIC in (μg/ml) (S. aureus MRSA 12673; [6]): 6.1 ± 1.6 µg/mL (≈ 4.21 µM)
